Assay results from US20130302282A1, “Inhibitors of Hepatitis C Virus” (priority 2010, published 2013).
Read-outs that look alike come from different tables or passages of the source.

Test system: 1b_Huh-Luc/Neo-ET cell line (bicistronic genotype 1b replicon in Huh 7 cells)
Test: HCV 1b replicon assay, luciferase readout
Type: cell-based, HCV genotype 1b
Method: Biological activity of the compounds of the invention was determined using an HCV replicon assay. The 1b_Huh-Luc/Neo-ET cell line persistently expressing a bicistronic genotype 1b replicon in Huh 7 cells was obtained from ReBLikon GMBH. This cell line was used to test compound inhibition using luciferase enzyme activity readout as a measurement of compound inhibition of replicon levels.
On Day 1 (the day after plating), each compound is added in triplicate to the cells. Plates incubated for 72 […] prior to running the luciferase assay. Enzyme activity was measured using a Bright-Glo Kit (cat. number E2620) manufactured by Promega Corporation. The following equation was used to generate a percent control value for each compound.
%Control=(Average Compound Value/Average Control)*100
The EC50 value was determined using GraphPad Prism and the following equation:
Y=Bottom+(Top−Bottom)/(1+10̂((LogIC50−X)*HillSlope))
EC50 values of compounds are repeated several times in the replicon assay.

[1] = Hepatitis C virus, Huh-7, 1b_Huh-Luc/Neo-ET cell line, read-out: EC50, half-maximal inhibition of HCV 1b replication
[2] = class symbol, HCV genotype 1b replicon, read-out: Inhibition of HCV genotype 1b replicon
[3] = Hepatitis C virus, Huh-7, class symbol, HCV genotype 1b replicon, read-out: Inhibition of HCV genotype 1b replicon

| SMILES | EC50 [1] [nM] | EC50 [2] [nM] | EC50 [3] [nM] |
| --- | --- | --- | --- |
| CNC(=O)c1c(-c2ccc(Oc3ccc(F)cc3)cc2)oc2cc3c(cc12)[C@H](C)O[C@H](CS(C)(=O)=O)CN3S(C)(=O)=O [Compound B216] | 10 to 100 | 10 to 100 | – |
| CNC(=O)c1c(-c2ccc(F)cc2)oc2cc3c(cc12)CCCCCN3S(C)(=O)=O [Compound B20] | ≤ 10 | – | < 10 |
| CS(=O)(=O)N1CCCCc2cc3c(-c4ncn[nH]4)c(-c4ccc(F)cc4)oc3cc21 [Compound B58] | – | – | 100 to 1000 |
| CNC(=O)c1c(-c2ccc(F)cc2)oc2cc3c(cc12)C(C)NC(=O)CN3S(C)(=O)=O (centres unmarked) [Compound B173] | 10 to 100 | – | 10 to 100 |
| C=CCN1CCN(S(C)(=O)=O)c2cc3oc(-c4ccc(F)cc4)c(C(=O)NC)c3cc2C1C (centres unmarked) [Compound B54] | 10 to 100 | – | 10 to 100 |
| CNC(=O)c1c(-c2ccc(Oc3ccc(F)cc3)cc2)oc2cc3c(cc12)C(C)OC(CO)CN3S(C)(=O)=O (centres unmarked) [Compound B191] | – | < 10 | – |
| CNC(=O)c1c(-c2ccc(F)cc2)nc2cc3c(cn12)C(C)=CCCO3 [Compound B30] | – | – | > 1000 |
| CNC(=O)c1c(-c2ccc(Oc3ccc(F)cc3)cc2)oc2cc3c(cc12)[C@H](C)O[C@@H](CS(C)(=O)=O)CN3S(C)(=O)=O [Compound B224] | 10 to 100 | – | 10 to 100 |
| CNC(=O)c1c(-c2ccc(F)cc2)oc2cc3c(cc12)C(C)c1ccccc1CN3S(C)(=O)=O (centres unmarked) [Compound B199] | 10 to 100 | – | 10 to 100 |
| CNC(=O)c1c(-c2ccc(F)cc2)oc2cc3c(cc12)C(C)OC(CO)CN3S(C)(=O)=O (centres unmarked) [Compound B195] | 10 to 100 | – | 10 to 100 |
| CNC(=O)c1c(-c2ccc(F)cc2)oc2cc3c(cc12)CC(C)CCN3S(C)(=O)=O (centres unmarked) [Compound B92] | ≤ 10 | – | < 10 |
| CNC(=O)c1c(-c2ccc(F)cc2)oc2cc3c(cc12)C(C)N(c1ccc(F)cc1)CCN3S(C)(=O)=O (centres unmarked) [Compound B165] | 10 to 100 | – | 10 to 100 |
| CNC(=O)c1c(-c2ccc(F)cc2)oc2cc3c(cc12)[C@@H](C)OC1(CC1)CN3S(C)(=O)=O (single isomer, unassigned) [Compound B194] | – | – | 100 to 1000 |
| CNC(=O)c1c(-c2ccc(F)cc2)oc2cc3c(cc12)C(C)OC1(CC1)CN3S(C)(=O)=O (centres unmarked) [Compound B188] | 10 to 100 | – | 10 to 100 |
| CNC(=O)c1c(-c2ccc(F)cc2)oc2cc3c(cc12)C(C)N(CCF)CCN3S(C)(=O)=O (centres unmarked) [Compound B147] | 10 to 100 | – | 10 to 100 |
| CNC(=O)c1c(-c2ccc(Oc3ccc(F)cc3)cc2)oc2cc3c(cc12)[C@@H](C)N(C)C(=O)CN3S(C)(=O)=O (single isomer, unassigned) [Compound B182] | – | – | 100 to 1000 |
| CNC(=O)c1c(-c2ccc(F)cc2)oc2cc3c(cc12)C(C)N([C@H](C)c1ccc(F)cc1)CCN3S(C)(=O)=O (some centres unmarked) [Compound B159] | 10 to 100 | – | 10 to 100 |
| CNC(=O)c1c(-c2ccc(Oc3cccc(F)c3)cc2)nn2cc3c(cc12)C(C)CCCN3S(C)(=O)=O (centres unmarked) [Compound B96] | – | – | 10 to 100 |
| CNC(=O)c1c(-c2ccc(F)cc2)oc2cc3c(cc12)C(C)OC(CC#N)CN3S(C)(=O)=O (centres unmarked) [Compound B226] | ≤ 10 | – | < 10 |
| CNC(=O)c1c(-c2ccc(F)cc2)nn2cc3c(cc12)CCCCCN3S(C)(=O)=O [Compound B125] | – | – | 10 to 100 |
| CNC(=O)c1c(-c2ccc(F)cc2)oc2cc3c(cc12)[C@@H](C)N(C)C(=O)CN3S(C)(=O)=O (single isomer, unassigned) [Compound B180] | 10 to 100 | – | 10 to 100 |
